Assay results published in patent US6444706B2, “Guanidine derivatives, processes for preparing them and their use as pharmaceutical compositions” (priority 1996, dated 2002).

What was measured:
herpes virus = test: Virus replication in infected cell cultures, plaque assay of supernatant; assay type: cell-based; conditions: Fibroblast, herpes-infected monkey kidney cells or human fibroblasts, 24 hours, read-out: IC50 (concentration at which virus replication is inhibited by 50%)
Protocol: The virostatic properties were determined by in vitro tests. The following virus strains were used:
Cell cultures (monkey kidney cells or human fibroblasts) are infected with herpes and a series of cultures are exposed to medium containing various concentrations of the test substance. After 24 hours the concentration of the virus descendants in the cell culture supernatant is determined by plaque assays.

[1] = tested on: collagen-induced arthritis; test: Inhibition of collagen-induced arthritis in the mouse; assay type: in vivo, DBA/I mice; conditions: for Total Symptoms: day 7 after booster injection, 10 animals
Protocol: An autoimmune reaction against cartilagenous tissue was produced by injecting collagen into DBA/I mice as described (Holmdahl, R. et al., Immunology, 65, 305-310, 1988). Groups of 10 animals were used as control or were given 50 mg/kg or 100 mg/kg of C11AG per day by oral route. The drug was administered in the food (Altromin, powdered food) and the dosage was calculated from the daily food intake. The symptoms were evaluated daily for each individual paw from 0.5-3 as described [R. Holmdahl, et al., Immunology, 65, 305-310, (1988)].
20 days after the booster injection the animals were killed and the joints were examined by histopathology resulting in the following picture: […]

[2] = target: T1, neutral SMase (membrane fraction isolated from mice brains) (Mus musculus, UniProt Q9JJY3); test: Inhibition of neutral SMase (14C sphingomyelin hydrolysis); assay type: biochemical; conditions: 2 h, pH 7.5, read-out: nSMase activity
T1 construct: membrane fraction isolated from mice brains, 10 μg of protein/mixture [according to S. Gatt, Biochem. Biophys; Res. Commun; 68, 235-241 (1976)]
T1 sequence (Q9JJY3 1-655): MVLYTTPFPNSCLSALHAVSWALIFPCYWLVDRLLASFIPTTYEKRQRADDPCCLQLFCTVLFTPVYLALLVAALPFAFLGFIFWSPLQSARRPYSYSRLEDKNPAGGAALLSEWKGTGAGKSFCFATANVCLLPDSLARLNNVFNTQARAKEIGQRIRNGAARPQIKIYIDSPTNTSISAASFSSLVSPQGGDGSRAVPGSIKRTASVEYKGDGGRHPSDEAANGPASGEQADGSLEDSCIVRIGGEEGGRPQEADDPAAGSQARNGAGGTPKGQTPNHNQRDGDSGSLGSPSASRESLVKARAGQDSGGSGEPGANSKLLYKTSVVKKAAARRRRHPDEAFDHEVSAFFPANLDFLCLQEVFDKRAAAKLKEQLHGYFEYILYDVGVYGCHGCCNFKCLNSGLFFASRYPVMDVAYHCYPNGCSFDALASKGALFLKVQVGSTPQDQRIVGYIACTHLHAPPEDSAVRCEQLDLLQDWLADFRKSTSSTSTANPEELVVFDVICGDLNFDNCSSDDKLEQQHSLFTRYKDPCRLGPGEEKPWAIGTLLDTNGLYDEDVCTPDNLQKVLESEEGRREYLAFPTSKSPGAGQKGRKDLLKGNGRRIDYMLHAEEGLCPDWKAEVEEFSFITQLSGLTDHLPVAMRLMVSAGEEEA
Protocol: Then the samples were extracted with 5 times the volume of chloroform/methanol (1:1) and the content of radioactive phosphorylcholine in the aqueous phase was determined. The release of phosphorylcholine in the untreated mixtures corresponds to 100% enzyme activity.
The release of phosphorylcholine in the untreated batches corresponds to 100%.

[3] = tested on: endotoxin from E. coli (endotoxic shock); test: Protection from endotoxic shock by C11AG in mice; assay type: in vivo, mice (strain NMRI/Nu); conditions: 50 mg/kg subcutaneously 30 minutes before 0.2 mg endotoxin i.p.; nine animals; all 10 controls died within 24 hours
Protocol: Mice (strain NMRI/Nu, 8 weeks old, female) were each given 0.2 mg of endotoxin from E. coli (Sigma, Munich) by intraperitoneal route. The 10 control animals, who had been given 0.2 ml of 5% glucose subcutaneously, died within 24 hours. Nine animals were injected subcutaneously with 50 mg/kg of C11AG 30 minutes before the endotoxin treatment. Of this group, only 2 animals died.

[4] = tested on: acidic SMase (microsome fraction from macrophage); test: Inhibition of acidic SMase (14C sphingomyelin hydrolysis); assay type: biochemical; conditions: pH 5.6, untreated = 100%
Protocol: ^14C sphingomyelin (10 μg/ml) were incubated with neutral SMase (membrane fraction isolated from mouse brains, 10 μg protein/mixture, according to Gatt, S. Biochem. Biophys. Res. Commun. 68, 235-241, 1976) or with acidic SMase (microsome fraction from macrophage 5 μg of protein/mixture isolated according to Gatt, S. Biochem. Biophys. Res. Commun. 68, 235-241, 1976) in the presence of various concentrations of the test substances, for 2 hours at 37° C. in 20 mM Tris, 1 mM MgCl2, pH 7.5 (neutral SMase) or in 50 mM sodium acetate, 1 mM MgCl2, pH 5.6 (acid SMase). Then the samples were extracted with 5 times the volume of chloroform/methanol (1:1) and the content of radioactive phosphorylcholine in the aqueous phase was determined. The release of phosphorylcholine in the untreated mixtures corresponds to 100% enzyme activity.
^14C-sphingomyelin (10 μg/ml) was incubated with neutral SMase (membrane fraction from mouse brain, 10 μg of protein/batch, isolated according to Gatt, S. Biochem. Biophys. Res. Commun. 68, 235-241, 1976) or with acid SMase (microsome fraction from macrophages 5 μg of protein per batch [isolated according to S. Gatt, Biochem. Biophys. Res. Commun. 68, 235-241, (1976)] in the presence of various concentrations of the test substances for 2 hours at 37° C. in 20 mM Tris, 1 mM MgCl2, pH 7.5 (neutral SMase) or in 50 mM sodium acetate, 1 mM MgCl2, pH 5.6 (acidic SMase). Then the samples were extracted with 5 times the volume of chloroform/methanol (1:1) and the content of radioactive phosphorylcholine in the aqueous phase was determined. The release of phosphorylcholine in the untreated batches corresponds to 100%.

[5] = tested on: RAW cells (mouse macrophage line); test: Inhibition of NO-synthase induction in macrophages (nitrite in culture medium); assay type: cell-based; conditions: 10 ng/ml LPS, 16 hours, without C11AG 0.122
Protocol: RAW cells (mouse macrophage line, origin: American Type Culture Collection) were treated with 10 ng/ml of endotoxin from E. coli (LPS) in the presence of different concentrations of C11AG. After 16 hours the nitrite content in the culture medium was measured using the method described [K. Tschaikowsky, M. Meisner, F. Schonhuber and E. Rugheimer, Br. J. Pharmacol. 113 (3): 664-8 (1994)].
The inhibition of NO-synthase induction is graphically shown in FIG. 3; the NO2 concentration [OD measured at 540 nm] is plotted against the C11AG concentration [μg/ml] for 10 ng/ml of LPS.

[6] = tested on: endotoxin from E. coli (lethal endotoxic shock); test: Prevention of lethal endotoxic shock in the mouse by H2C11AG; assay type: in vivo, mice of the Balb C strain; conditions: 100 mg/kg by oesophageal tube 2 hours before 0.7 mg endotoxin i.p., 10 animals, observed 12 days
Protocol: 10 mice of the Balb C strain (about 8 weeks old) were given 0.7 mg of endotoxin from E. coli (in 0.2 ml of isotonic saline solution) by intraperitoneal injection. 10 animals were given 100 mg/kg of H2C11AG (dissolved in twice distilled water) by oesphageal tube 2 hours before the LPS treatment. The control animals were given water.

SMILES: CCCCCCCCCCCC=NNC(=N)N [1-(dodecylideneamino)guanidine]
- IC50 (herpes virus): 3.2 µM

SMILES: CCCCCCCCCCC=NNC(=N)N [C11AG, 1-(undecylideneamino)guanidine]
- IC50 (herpes virus): 6.8 µM
- Total Symptoms ([1]; 50 mg/kg per day oral in food): 4.5
- Total Symptoms ([1]; 100 mg/kg per day oral in food): 1
- histopathology of joints (inflammatory processes) ([1]; 50 and 100 mg/kg, 20 days after booster injection): no such inflammatory processes could be detected
- activity at 1 µg/mL [2]: 61%
- activity at 10 µg/mL [2]: 18%
- activity at 100 µg/mL [2]: 0%
- animals died [3]: 2
- aSMase activity ([4]; 1 μg/ml): 101%
- aSMase activity ([4]; 10 μg/ml): 102%
- aSMase activity ([4]; 100 μg/ml): 31%
- OD 540 nm (nitrite content in culture medium) ([5]; 0.5 μg/ml C11AG): 0.091
- OD 540 nm (nitrite content in culture medium) ([5]; 1 μg/ml C11AG): 0.075
- OD 540 nm (nitrite content in culture medium) ([5]; 2 μg/ml C11AG): 0.054
- OD 540 nm (nitrite content in culture medium) ([5]; 3 μg/ml C11AG): 0.05
- OD 540 nm (nitrite content in culture medium) ([5]; 4 μg/ml C11AG): 0.038

SMILES: N=C(N)NN=C1C=Cc2cccc3cccc1c23 [1-(phenalen-1-ylidene-amino)guanidine, 1-(Phenalen-1-ylidene-amino)guanidine]
- IC50 (herpes virus): 45.4 µM

SMILES: CCCCCCCCCC=NNC(=N)N [1-(decylidene-amino)guanidine]
- IC50 (herpes virus): 28.9 µM

SMILES: CCCCCCCCC=NNC(=N)N [1-(nonylidene-amino)guanidine]
- IC50 (herpes virus): 29 µM

SMILES: N=C(N)NN=Cc1c[nH]c2ccccc12 [1-(indol-3-ylmethylene-amino)guanidine, 1-(Indol-3-ylmethylene-amino)guanidine]
- IC50 (herpes virus): 19.8 µM

SMILES: CCCCCCCCCCCNNC(=N)N [H2C11AG, 1-(undecylamino) guanidine]
- activity at 1 µg/mL [2]: 73%
- activity at 10 µg/mL [2]: 22%
- activity at 100 µg/mL [2]: 2%
- aSMase activity ([4]; 1 μg/ml): 100%
- aSMase activity ([4]; 10 μg/ml): 97%
- aSMase activity ([4]; 100 μg/ml): 32%
- survivors ([6]; control 2 survivors): 9
- survivors (%) ([6]; control 20%): 90%

SMILES: CCCCCCCC=NNC(=N)N [1-(octylidene-amino)guanidine]
- IC50 (herpes virus): 49.7 µM

SMILES: N=C(N)NN=Cc1c2ccccc2cc2ccccc12 [1-(Anthracen-9-ylmethylene-amino)guanidine]
- IC50 (herpes virus): 1.5 µM
